Measured values: PubChem BioAssay AID330 (DTP/NCI, 2004)
Several values for one entry are separate records, joined by “and”; a condition that tells them apart may be missing. Equal values may be shown once. Inconclusive results and toxic doses are left out.

Test system: P388 leukemia ip, CD2F1 mice, survival T/C
Experiment: NCI In Vivo Anticancer Drug Screen. Data for tumor model P388 Leukemia (intraperitoneal) in CD2F1 (CDF1) mice
Conditions: endpoint: median survival time, higher = longer survival
Summary of the method: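 Mice carrying the transplanted tumor received test compound or vehicle. Survival was recorded in each group, and the value is the treated-group measurement divided by that of the vehicle-treated control group.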

[1] = dose: 60.0 mg/kg/injection, schedule: Q01DX005 (ip), vehicle: saline with Tween-80
[2] = dose: 120.0 mg/kg/injection, schedule: Q01DX005 (ip), vehicle: saline with Tween-80
[3] = dose: 25.0 mg/kg/injection, schedule: Q01DX009 (ip), vehicle: saline with Tween-80
[4] = dose: 50.0 mg/kg/injection, schedule: Q01DX009 (ip), vehicle: saline with Tween-80
[5] = dose: 100.0 mg/kg/injection, schedule: Q01DX009 (ip), vehicle: saline with Tween-80
[6] = dose: 50.0 mg/kg/injection, schedule: Q01DX009 (ip), vehicle: Klucel (hydroxypropylcellulose) (HPC)
[7] = dose: 100.0 mg/kg/injection, schedule: Q01DX009 (ip), vehicle: Klucel (hydroxypropylcellulose) (HPC)
[8] = dose: 200.0 mg/kg/injection, schedule: Q01DX009 (ip), vehicle: Klucel (hydroxypropylcellulose) (HPC)
[9] = dose: 200.0 mg/kg/injection, schedule: Q01DX009 (ip), vehicle: saline with Tween-80

Compound: CC12CCC3c4ccc(OC(=O)C56C=CC(=O)C5C5C=CC6CC5)cc4CCC3C1CCC2=O (stereo not given)
- T/C (dose: 25.0 mg/kg/injection, schedule: Q01DX005 (ip), vehicle: distilled water + Tween-80): 91 % of control
- T/C (dose: 50.0 mg/kg/injection, schedule: Q01DX005 (ip), vehicle: distilled water + Tween-80): 95 % of control
- T/C (dose: 100.0 mg/kg/injection, schedule: Q01DX005 (ip), vehicle: distilled water + Tween-80): 87 % of control
- T/C (dose: 200.0 mg/kg/injection, schedule: Q01DX005 (ip), vehicle: distilled water + Tween-80): 95 % of control

Compound: C/C(=N\N=C(N)N)c1ccccc1
- T/C (dose: 6.25 mg/kg/injection, schedule: Q01DX009 (ip), vehicle: saline): 110 % of control
- T/C (dose: 12.5 mg/kg/injection, schedule: Q01DX009 (ip), vehicle: saline): 101 % of control

Compound: CCCCCCC(=O)c1c(O)c2ccccc2oc1=O
- T/C [1]: 100 % of control
- T/C [2]: 88 % of control

Compound: N=c1ccn2c(n1)OC1C(O)C(CO)OC12 (stereo not given)
- T/C (dose: 50.0 mg/kg/injection, schedule: Q01DX009 (ip), vehicle: saline): 200 % of control
- T/C (dose: 75.0 mg/kg/injection, schedule: Q01DX009 (ip), vehicle: saline): 156 % of control
- T/C (dose: 100.0 mg/kg/injection, schedule: Q01DX009 (ip), vehicle: saline sonified): 181 % of control
- T/C (dose: 100.0 mg/kg/injection, schedule: Q01DX009 (ip), vehicle: saline): 222 % of control
- T/C (dose: 150.0 mg/kg/injection, schedule: Q01DX009 (ip), vehicle: saline): 175 % of control
- T/C (dose: 160.0 mg/kg/injection, schedule: Q01DX005 (ip), vehicle: saline): 150 % of control
- T/C (dose: 160.0 mg/kg/injection, schedule: Q01DX005 (iv), vehicle: saline): 161 % of control
- T/C (dose: 200.0 mg/kg/injection, schedule: Q01DX009 (ip), vehicle: saline sonified): 168 % of control
- T/C (dose: 200.0 mg/kg/injection, schedule: Q01DX009 (ip), vehicle: saline): 272 % of control
- T/C (dose: 300.0 mg/kg/injection, schedule: Q01DX009 (ip), vehicle: saline): 200 % of control
- T/C (dose: 320.0 mg/kg/injection, schedule: Q01DX005 (ip), vehicle: saline): 170 % of control
- T/C (dose: 320.0 mg/kg/injection, schedule: Q01DX005 (iv), vehicle: saline): 184 % of control
- T/C (dose: 400.0 mg/kg/injection, schedule: Q01DX009 (ip), vehicle: saline sonified): 181 % of control
- T/C (dose: 400.0 mg/kg/injection, schedule: Q01DX009 (ip), vehicle: saline): 272 % of control
- T/C (dose: 600.0 mg/kg/injection, schedule: Q01DX009 (ip), vehicle: saline): 91 % of control
- T/C (dose: 640.0 mg/kg/injection, schedule: Q01DX005 (ip), vehicle: saline): 203 % of control
- T/C (dose: 640.0 mg/kg/injection, schedule: Q01DX005 (iv), vehicle: saline): 194 % of control
- T/C (dose: 800.0 mg/kg/injection, schedule: Q01DX009 (ip), vehicle: saline sonified): 181 % of control

Compound: CCC(=O)N1C(=O)C(C)C23c4cc(OC)c(OC)cc4C(=O)N2CCCN13 (stereo not given)
- T/C (dose: 60.0 mg/kg/injection, schedule: Q01DX005 (ip), vehicle: Klucel (hydroxypropylcellulose) (HPC)): 100 % of control
- T/C (dose: 120.0 mg/kg/injection, schedule: Q01DX005 (ip), vehicle: Klucel (hydroxypropylcellulose) (HPC)): 94 % of control
- T/C (dose: 240.0 mg/kg/injection, schedule: Q01DX005 (ip), vehicle: Klucel (hydroxypropylcellulose) (HPC)): 90 % of control

Compound: COc1ccc(C(=O)ON(c2ccccc2)C(C)(C)C)cc1
- T/C [3]: 97 % of control
- T/C [4]: 103 % of control
- T/C [5]: 97 % of control

Compound: O=C(O)c1ccccc1.[Eu]
- T/C (dose: 12.5 mg/kg/injection, schedule: Q01DX009 (ip), vehicle: Klucel (hydroxypropylcellulose) (HPC)): 88 % of control
- T/C (dose: 25.0 mg/kg/injection, schedule: Q01DX009 (ip), vehicle: Klucel (hydroxypropylcellulose) (HPC)): 87 % of control
- T/C [6]: 89 % of control and 92 % of control
- T/C [7]: 90 % of control
- T/C [8]: 89 % of control

Compound: CSc1c(N(C)C)c(=O)c1=S
- T/C (dose: 15.0 mg/kg/injection, schedule: Q01DX005 (ip), vehicle: saline with Tween-80): 99 % of control
- T/C (dose: 30.0 mg/kg/injection, schedule: Q01DX005 (ip), vehicle: saline with Tween-80): 108 % of control
- T/C [1]: 107 % of control

Compound: Cc1cc2sccc2cn1
- T/C [3]: 100 % of control
- T/C [4]: 100 % of control

Compound: O=C(CBr)c1cc2ccccc2[nH]1
- T/C (dose: 100.0 mg/kg/injection, schedule: Q01DX001 (ip), vehicle: saline): 110 % of control
- T/C (dose: 200.0 mg/kg/injection, schedule: Q01DX001 (ip), vehicle: saline): 106 % of control
- T/C (dose: 400.0 mg/kg/injection, schedule: Q01DX001 (ip), vehicle: saline): 106 % of control

Compound: CCCCCCCCCCCCCCN1CCCN(CCCCCCCCCCCCCC)CC1
- T/C [1]: 92 % of control
- T/C [2]: 94 % of control
- T/C (dose: 240.0 mg/kg/injection, schedule: Q01DX005 (ip), vehicle: saline with Tween-80): 88 % of control

Compound: CN(C)C1=NS(=O)(=O)c2ccccc21
- T/C (dose: 50.0 mg/kg/injection, schedule: Q01DX005 (ip), vehicle: saline with Tween-80): 100 % of control
- T/C (dose: 100.0 mg/kg/injection, schedule: Q01DX005 (ip), vehicle: saline with Tween-80): 106 % of control
- T/C (dose: 200.0 mg/kg/injection, schedule: Q01DX005 (ip), vehicle: saline with Tween-80): 93 % of control

Compound: CCOC(OCC)C(=O)OCC(=O)[C@]1(O)Cc2c(O)c3c(c(O)c2[C@@H](OC2CC(N)C(O)C(C)O2)C1)C(=O)c1c(OC)cccc1C3=O (stereo not given in full)
- T/C (dose: 0.13 mg/kg/injection, schedule: Q03HX008 (ip), vehicle: saline): 111 % of control
- T/C (dose: 0.25 mg/kg/injection, schedule: Q03HX008 (ip), vehicle: saline): 117 % of control
- T/C (dose: 0.5 mg/kg/injection, schedule: Q01DX009 (ip), vehicle: saline): 160 % of control
- T/C (dose: 1.0 mg/kg/injection, schedule: Q01DX001 (ip), vehicle: saline): 118 % of control
- T/C (dose: 1.0 mg/kg/injection, schedule: Q01DX009 (ip), vehicle: saline): 173 % of control
- T/C (dose: 2.0 mg/kg/injection, schedule: Q01DX001 (ip), vehicle: saline): 123 % of control
- T/C (dose: 2.0 mg/kg/injection, schedule: Q01DX009 (ip), vehicle: saline): 245 % of control
- T/C (dose: 4.0 mg/kg/injection, schedule: Q01DX009 (ip), vehicle: saline): 198 % of control
- T/C (dose: 4.0 mg/kg/injection, schedule: Q03HX008 (ip), vehicle: saline): 168 % of control
- T/C (dose: 8.0 mg/kg/injection, schedule: Q03HX008 (ip), vehicle: saline): 88 % of control
- T/C (dose: 16.0 mg/kg/injection, schedule: Q01DX001 (ip), vehicle: saline): 170 % of control
- T/C (dose: 32.0 mg/kg/injection, schedule: Q01DX001 (ip), vehicle: saline): 189 % of control
- T/C (dose: 64.0 mg/kg/injection, schedule: Q01DX001 (ip), vehicle: saline): 87 % of control

Compound: CSc1ncn(C)c1C(N)=O
- T/C (dose: 50.0 mg/kg/injection, schedule: Q01DX005 (ip), vehicle: Klucel (hydroxypropylcellulose) (HPC)): 97 % of control
- T/C (dose: 100.0 mg/kg/injection, schedule: Q01DX005 (ip), vehicle: Klucel (hydroxypropylcellulose) (HPC)): 99 % of control
- T/C (dose: 200.0 mg/kg/injection, schedule: Q01DX005 (ip), vehicle: Klucel (hydroxypropylcellulose) (HPC)): 99 % of control

Compound: O=C(NCCc1nc(-c2nc(C(=O)O)cs2)cs1)c1ccccc1
- T/C [5]: 100 % of control
- T/C [9]: 100 % of control
- T/C (dose: 400.0 mg/kg/injection, schedule: Q01DX009 (ip), vehicle: saline with Tween-80): 90 % of control

Compound: Clc1ccc2nsnc2c1
- T/C (dose: 6.25 mg/kg/injection, schedule: Q01DX009 (ip), vehicle: saline with Tween-80): 101 % of control
- T/C (dose: 12.5 mg/kg/injection, schedule: Q01DX009 (ip), vehicle: saline with Tween-80): 95 % of control
- T/C [3]: 95 % of control
- T/C [6]: 101 % of control
- T/C [4]: 104 % of control
- T/C [7]: 107 % of control
- T/C [5]: 104 % of control
- T/C [8]: 108 % of control
- T/C [9]: 95 % of control

Compound: Cc1nc(C(N)=O)c(=O)[nH]c1C
- T/C (dose: 33.0 mg/kg/injection, schedule: Q04DX003 (ip), vehicle: saline): 100 % of control
- T/C (dose: 50.0 mg/kg/injection, schedule: Q04DX003 (ip), vehicle: saline): 100 % of control
- T/C (dose: 75.0 mg/kg/injection, schedule: Q04DX003 (ip), vehicle: saline): 100 % of control
- T/C (dose: 100.0 mg/kg/injection, schedule: Q04DX003 (ip), vehicle: saline with Tween-80): 100 % of control
- T/C (dose: 200.0 mg/kg/injection, schedule: Q04DX003 (ip), vehicle: saline with Tween-80): 106 % of control
- T/C (dose: 400.0 mg/kg/injection, schedule: Q04DX003 (ip), vehicle: saline with Tween-80): 106 % of control
